Results reported in ChEMBL document CHEMBL1201862, “PubChem BioAssay data set” (2004).
The source made the active and inactive calls.

Legend:
[1] = target: 1-acylglycerol-3-phosphate O-acyltransferase ABHD5/Perilipin-5 (Homo sapiens, UniProt Q00G26+Q8WTS1); experiment: Luminescence-based biochemical high throughput dose response assay for inhibitors of the interaction of the lipase co-activator protein, abhydrolase domain containing 5 (ABHD5) with perilipin-5 (MLDP; PLIN5) (2K validation set). [Related pubchem assays (depositor defined):AID493035, AID493241]
Perilipin-1/ABHD5 = Perilipin-1/ABHD5 (Homo sapiens, UniProt O60240+Q8WTS1); experiment: Luminescence-based biochemical high throughput dose response assay for inhibitors of the interaction of the lipase co-activator protein, abhydrolase domain containing 5 (ABHD5) with perilipin-1 (PLIN1) (2K validation set). [Related pubchem assays (depositor defined):AID493027, AID493057]
[2] = target: T1, Mannose-6-phosphate isomerase (Homo sapiens, UniProt P34949); experiment: phosphomannose isomerase inhibition – biochemical, fluorescence intensity, confirmation (AID 1535)
T1 sequence (P34949 whole entry): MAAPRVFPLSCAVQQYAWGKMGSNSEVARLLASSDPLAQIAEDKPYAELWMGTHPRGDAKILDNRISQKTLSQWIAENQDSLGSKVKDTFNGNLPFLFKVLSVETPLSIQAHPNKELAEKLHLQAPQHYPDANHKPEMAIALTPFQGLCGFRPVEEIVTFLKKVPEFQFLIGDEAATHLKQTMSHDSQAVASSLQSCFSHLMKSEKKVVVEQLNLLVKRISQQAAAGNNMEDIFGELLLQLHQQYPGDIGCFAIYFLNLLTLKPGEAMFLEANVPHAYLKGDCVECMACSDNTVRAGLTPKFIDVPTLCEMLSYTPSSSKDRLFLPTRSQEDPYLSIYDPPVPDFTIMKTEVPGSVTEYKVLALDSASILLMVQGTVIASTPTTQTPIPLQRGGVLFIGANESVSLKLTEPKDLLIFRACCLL

Phosphomannomutase 2 = Phosphomannomutase 2 (Homo sapiens, UniProt O15305); experiment: Counter screen SAR assay for PMM2 inhibitors via a fluorescence intensity assay. [Related pubchem assays (depositor defined):AID1545, AID1574]
Troponin, cardiac muscle = Troponin, cardiac muscle (Homo sapiens, UniProt P19429+P45379+P63316); experiment: Fluorescence-based biochemical high throughput dose response assay for activators of the calcium sensitivity of cardiac Regulated Thin Filaments (RTF). [Related pubchem assays (depositor defined):AID493008, AID493018, AID504382, AID504383]; assay type: protein-complex assay
Coagulation factor XII = target: T2, Coagulation factor XII (Homo sapiens, UniProt P00748); experiment: activated coagulation factor XII inhibitor potency, concentration-effect curve, cell-free (AID 716); assay type: functional
T2 sequence (P00748 whole entry): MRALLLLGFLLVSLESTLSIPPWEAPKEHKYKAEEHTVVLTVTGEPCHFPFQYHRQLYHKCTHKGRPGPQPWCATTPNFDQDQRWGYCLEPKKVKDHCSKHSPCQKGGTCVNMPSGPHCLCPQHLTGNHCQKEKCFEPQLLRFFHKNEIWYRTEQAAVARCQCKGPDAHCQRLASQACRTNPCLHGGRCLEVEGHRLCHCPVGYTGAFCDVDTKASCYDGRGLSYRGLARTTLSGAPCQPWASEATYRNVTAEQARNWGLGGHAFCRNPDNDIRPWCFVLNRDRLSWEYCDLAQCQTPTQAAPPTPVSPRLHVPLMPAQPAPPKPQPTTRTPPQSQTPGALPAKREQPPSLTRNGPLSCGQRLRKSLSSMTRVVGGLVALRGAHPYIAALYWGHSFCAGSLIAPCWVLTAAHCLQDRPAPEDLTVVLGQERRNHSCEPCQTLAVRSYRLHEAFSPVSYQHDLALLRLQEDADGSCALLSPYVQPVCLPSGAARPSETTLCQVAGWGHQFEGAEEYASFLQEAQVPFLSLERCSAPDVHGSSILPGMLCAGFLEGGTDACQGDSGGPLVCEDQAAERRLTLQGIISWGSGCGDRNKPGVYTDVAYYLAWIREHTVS

[3] = target: Peroxisome proliferator-activated receptor gamma/Nuclear receptor coactivator 1 (Homo sapiens, UniProt P37231); experiment: (§1) TR-FRET dose response biochemical High Throughput Screening assay for agonists of the steroid receptor coactivator 1 (SRC-1) recruitment by the peroxisome proliferator-activated receptor gamma (PPAR gamma): non-selective agonists. [Related pubchem assays (depositor defined):AID1300, AID1808, AID504735, AID631]; assay type: protein assay
[4] = target: Peroxisome proliferator-activated receptor gamma/Nuclear receptor coactivator 3 (Homo sapiens, UniProt P37231); experiment: as §1, with “3 (SRC-3)” for “1 (SRC-1)”, “assays: 1301 (Confirmation screen.), 1048 (Primary screen.)]” for “assays (depositor defined):AID1300, AID1808, AID504735, AID631]”; assay type: functional
[5] = target: Peroxisome proliferator-activated receptor gamma/Nuclear receptor coactivator 2 (Homo sapiens, UniProt P37231); experiment: TR-FRET dose response biochemical High Throughput Screening assay for agonists of the steroid receptor coactivator 2 (SRC-2) recruitment by the peroxisome proliferator-activated receptor gamma (PPAR gamma): non-selective agonists. [Related pubchem assays: 1297, 1032 ]; assay type: functional
HEK293 [6] = experiment: inhibition of NOD1-driven NF-kB reporter – cell-based, luminescence, uHTS, primary screen (AID 1578); assay type: functional; settings: Homo sapiens
HEK293 [7] = experiment: cells; assay type: functional, cell-based; settings: Homo sapiens
HEK293 [8] = experiment: cells; assay type: functional, cell-based; settings: Homo sapiens; remark: listed apart in the source
[9] = target: Nucleotide-binding oligomerization domain-containing protein 2 (Homo sapiens, UniProt Q9HC29); experiment: inhibition of NOD2-driven NF-kB reporter – cell-based, luminescence, uHTS, HEK293 (AID 1566); assay type: functional
HEK293 [10] = experiment: NOD2 signaling inhibitors in MDP-stimulated cells, cell-based, uHTS, luminescence (AID 2001); assay type: functional; settings: Homo sapiens
HEK293 [11] = experiment: cells; assay type: functional, cell-based; settings: Homo sapiens; remark: listed apart in the source
[12] = target: DNA damage-inducible transcript 3 protein (Mus musculus, UniProt P35639); assay type: functional, Cricetulus griseus
[13] = target: T3, Voltage-gated N-type calcium channel alpha-1B subunit/Amyloid beta A4 precursor protein-binding family A member 1 (Homo sapiens, UniProt Q00975+Q02410); assay type: protein assay
[14] = target: T3, Voltage-gated N-type calcium channel alpha-1B subunit/Amyloid beta A4 precursor protein-binding family A member 1; assay type: protein assay; remark: listed apart in the source
[15] = target: Alkaline phosphatase, placental type (Homo sapiens, UniProt P05187); experiment: human placental alkaline phosphatase inhibition – biochemical, luminescence, confirmation (AID 1512); assay type: functional
[16] = target: T4, Alkaline phosphatase, tissue-nonspecific isozyme (Homo sapiens, UniProt P05186); experiment: potency against alkaline phosphatase TNAP – biochemical, luminescent, dose response, SAR follow-up (AID 1056)
T4 sequence (P05186 whole entry): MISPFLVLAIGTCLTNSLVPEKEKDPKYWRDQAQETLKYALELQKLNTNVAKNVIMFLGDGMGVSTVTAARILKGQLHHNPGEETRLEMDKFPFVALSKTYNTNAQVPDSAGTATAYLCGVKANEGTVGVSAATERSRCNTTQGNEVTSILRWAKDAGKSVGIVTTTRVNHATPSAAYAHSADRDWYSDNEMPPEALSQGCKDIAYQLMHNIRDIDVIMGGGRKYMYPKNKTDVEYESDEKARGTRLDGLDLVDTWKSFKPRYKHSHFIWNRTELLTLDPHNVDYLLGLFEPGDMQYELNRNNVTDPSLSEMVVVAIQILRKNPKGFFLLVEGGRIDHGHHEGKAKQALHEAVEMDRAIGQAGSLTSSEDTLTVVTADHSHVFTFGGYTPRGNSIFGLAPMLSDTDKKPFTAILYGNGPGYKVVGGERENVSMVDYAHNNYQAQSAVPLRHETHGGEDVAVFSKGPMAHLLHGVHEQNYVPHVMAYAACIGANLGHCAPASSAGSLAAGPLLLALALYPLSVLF

## COc1ccc(C(=O)/C=C/c2cc(C(=O)O)cc3c2OCOC3)c(O)c1
[1]
  IC50: 6.24 µM (active)
Perilipin-1/ABHD5
  IC50: 4.42 µM (active)

## Oc1ccc(/N=c2\ssnc2Cl)cc1
[2]
  IC50: > 100 µM (inactive)
Phosphomannomutase 2
  IC50: > 100 µM (inactive)

## CCc1ccc2c(COC(=O)CNS(=O)(=O)c3ccc(NC(C)=O)cc3)cc(=O)oc2c1
Troponin, cardiac muscle
  EC50: > 71.5 µM (inactive)

## CCCN1CCc2c(sc(NC(=S)NC(=O)c3ccccc3)c2C#N)C1
Troponin, cardiac muscle
  EC50: 3.73 µM (active)

## COC(=O)COc1cccc(-n2cnnn2)c1
Coagulation factor XII
  IC50: > 50 µM (inactive)

## Cn1c(=O)cc(SCC(=O)NCc2ccc(F)cc2)c2ccccc21
[3]
  EC50: > 79.4 µM (inactive)
[4]
  EC50: > 79.4 µM (not active)
[5]
  EC50: > 79.4 µM (not active)

## O=C(Nc1ccc(Cl)cc1)c1cccc(N2C(=O)C3C4CCC(C4)C3C2=O)c1 (stereo unspecified)
HEK293 [6]
  EC50: 12 µM (active)
HEK293 [7]
  IC50: 15.7 µM (active)
HEK293 [8]
  IC50: > 20 µM (inactive)
[9]
  EC50: > 20 µM (inactive)
HEK293 [10]
  IC50: 16.7 µM (inactive)
HEK293 [11]
  IC50: > 20 µM (inactive)

## CCCCNS(=O)(=O)c1ccc2nc(-c3cccnc3)cc(C(=O)NC3CCCC3)c2c1
[12]
  Absolute IC50 (CHOP): 10 µM

## COC(=O)c1ccc(COc2ccc(/C=N/Nc3nc(C)cc(O)n3)cc2)cc1
[13]
  IC50: > 56.8 µM (not active)
[14]
  IC50: > 50 µM (inactive)

## CCCCN1C(=O)/C(=N\Nc2ccccc2F)c2ccccc21
[15]
  IC50: 78.5 µM (active)
[16]
  IC50: > 100 µM (inactive)
